Assay results published in ChEMBL document CHEMBL1201862, “PubChem BioAssay data set” (2004).
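Growth conditions: 96-well plates. Treatment: test compound, 48 hours, 5 concentrations. Analysis: linear interpolation between bracketing concentrations; unreached endpoints set to highest concentration. GI50: concentration for 50% inhibition of growth.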 The source made the active and inactive calls. No stated cut-off is given here; in the data, active = GI50 up to about 1.1 µM and inactive = higher.

How the values were obtained:
Test in all cases: DTP human tumour cell line panel, 48 h
[1] = test system: 786-0
[2] = test system: ACHN
[3] = test system: CAKI-1
[4] = test system: EKVX
[5] = test system: HL-60
[6] = test system: Malme-3M
[7] = test system: NCI-H226
[8] = test system: OVCAR-8
[9] = test system: SF-268
[10] = test system: SN12C
[11] = test system: SNB-75
[12] = test system: UACC-257
[13] = test system: UACC-62
[14] = test system: UO-31
[15] = test system: A498
[16] = test system: MDA-MB-435
[17] = test system: MDA-N
[18] = test system: NCI/ADR-RES
[19] = test system: T47D

Measured: GI50

Nc1nc2sc3ccccc3c(=O)n2n1
inactive: [1] > 100 µM | [2] > 100 µM | [3] > 100 µM | [4] 64.7 µM | [5] > 100 µM | [6] > 100 µM | [7] > 100 µM | [8] > 100 µM | [9] > 100 µM | [10] > 100 µM | [11] > 100 µM | [12] > 100 µM | [13] > 100 µM | [14] > 100 µM

N=C1N(S(=O)(=O)c2ccccc2)[C@@H](Cc2ccccc2)[C@H](c2ccccc2)C1(c1ccccc1)c1ccccc1
inactive: [1] > 100 µM | [15] > 100 µM | [2] > 100 µM | [3] > 100 µM | [4] 37.2 µM | [5] 4.12 µM | [16] > 100 µM | [17] > 100 µM | [6] > 100 µM | [18] 70.1 µM | [8] 41 µM | [9] > 100 µM | [10] > 100 µM | [11] > 100 µM | [12] 35.6 µM | [13] > 100 µM | [14] 8.55 µM

O=C1c2ccccc2-c2nc(-c3cccs3)cc3c2c1nc1ccccc13
inactive: [1] 35.8 µM | [2] 34.4 µM | [3] 88.7 µM | [4] 98.2 µM | [5] 5.42 µM | [16] 2.01 µM | [17] 6.97 µM | [6] 3.56 µM | [7] 47.8 µM | [18] 74.6 µM | [8] 41.8 µM | [9] 12.5 µM | [10] > 100 µM | [11] 24.9 µM | [12] 14.1 µM | [13] 5.41 µM | [14] 22.7 µM

Cc1ccc(C(C2C(=O)N(C)C(=O)N(C)C2=O)C(F)(F)C(=O)N(C)C)cc1 (stereo unspecified)
inactive: [1] > 100 µM | [15] > 100 µM | [2] > 100 µM | [3] > 100 µM | [4] > 100 µM | [16] > 100 µM | [6] > 100 µM | [7] > 100 µM | [18] > 100 µM | [8] > 100 µM | [9] > 100 µM | [11] > 100 µM | [19] > 100 µM | [12] > 100 µM | [13] > 100 µM | [14] > 100 µM

CN[C@@H](C)[C@@H](N)c1ccccc1
inactive: [1] > 100 µM | [15] > 100 µM | [2] > 100 µM | [3] > 100 µM | [4] > 100 µM | [6] > 100 µM | [7] > 100 µM | [8] > 100 µM | [10] > 100 µM | [11] 62.8 µM | [12] > 100 µM | [13] > 100 µM | [14] > 100 µM

OCCOCn1nncc1Cn1ncc2c(O)ncnc21
inactive: [1] 52 µM | [15] > 100 µM | [2] > 100 µM | [3] > 100 µM | [4] > 100 µM | [5] 23.9 µM | [16] 26.9 µM | [6] > 100 µM | [7] > 100 µM | [18] > 100 µM | [8] > 100 µM | [9] > 100 µM | [10] > 100 µM | [11] > 100 µM | [19] > 100 µM | [12] > 100 µM | [13] > 100 µM | [14] > 100 µM

COc1cc2c(/C=C3/C(=O)N(C)c4ccc(O)cc43)c(Cl)[nH]c2cc1C
inactive: [15] 2.06 µM | [4] 1.57 µM | [9] 2.07 µM | [19] 3.41 µM | [12] 2.25 µM | [14] 1.64 µM
active: [1] 0.362 µM | [2] 0.532 µM | [3] 0.394 µM | [5] 0.281 µM | [16] 0.0284 µM | [6] 0.179 µM | [7] 0.516 µM | [18] 0.703 µM | [8] 0.597 µM | [10] 0.776 µM | [11] 0.439 µM | [13] 0.281 µM

Cc1nc2ccc(F)cc2c(Cl)c1CCCl
inactive: [1] 34.1 µM | [15] 63.1 µM | [2] 78.7 µM | [4] 13.9 µM | [5] 16.1 µM | [16] 26.9 µM | [6] 31.6 µM | [7] 54.1 µM | [18] 43 µM | [8] 49.3 µM | [9] 37.1 µM | [11] 72.6 µM | [19] 38.6 µM | [12] 39 µM | [13] 27.7 µM | [14] 73.1 µM

O=[N+]([O-])c1ccc(C2NC(=S)NC3c4cc([N+](=O)[O-])ccc4CCCC23)cc1 (stereo unspecified)
inactive: [1] 97.1 µM | [15] 76.7 µM | [2] 63.4 µM | [3] > 100 µM | [4] 77.3 µM | [5] > 100 µM | [16] > 100 µM | [6] > 100 µM | [7] 53.5 µM | [18] > 100 µM | [8] 52.2 µM | [9] 46.8 µM | [10] > 100 µM | [11] 16.6 µM | [19] 35.6 µM | [12] > 100 µM | [13] 31.2 µM | [14] 63.8 µM

Nc1ccc2nc(NCc3ccc(F)cc3)cnc2c1
inactive: [1] > 100 µM | [2] > 100 µM | [4] > 100 µM | [5] 54.1 µM | [6] > 100 µM | [7] > 100 µM | [8] > 100 µM | [9] > 100 µM | [10] > 100 µM | [11] 29.2 µM | [13] > 100 µM | [14] 21.3 µM

CSC12c3cc(C)n(-c4ccccc4)c3CC(C)(C)CN1C(=O)C2Oc1ccccc1 (stereo unspecified)
inactive: [1] 83.8 µM | [15] 54 µM | [2] 36 µM | [3] > 100 µM | [4] 26.5 µM | [16] > 100 µM | [7] 24.9 µM | [18] 62.4 µM | [8] 97.3 µM | [10] > 100 µM | [11] > 100 µM | [19] > 100 µM | [12] 19.1 µM | [13] 29.3 µM | [14] 25.7 µM

CC1(C)CN(CC(=O)O)CC(Cc2ccc(OCC(=O)O)cc2)N(CC(=O)O)CC(C)(C)SS1 (stereo unspecified)
inactive: [1] > 100 µM | [15] > 100 µM | [2] > 100 µM | [3] > 100 µM | [4] > 100 µM | [16] > 100 µM | [17] > 100 µM | [6] > 100 µM | [7] > 100 µM | [18] > 100 µM | [8] > 100 µM | [9] > 100 µM | [10] > 100 µM | [11] > 100 µM | [12] > 100 µM | [13] > 100 µM | [14] > 100 µM
